Test results published in ChEMBL document CHEMBL1201861, “Genomics of Drug Sensitity in Cancer screening data, Wellcome Trust Sanger Institute”.
pIC50: −log10 of the molar value.

How the values were obtained:
Assay in all cases: cells
[1] = system: KM-H2; format: functional, cell-based, Homo sapiens; settings: Homo sapiens, KM-H2;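 also: growth inhibition of KM-H2 cells, read out by a cell viability assay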
Description: SANGER: Inhibition of human KM-H2 cell growth in a cell viability assay.

[2] = system: HH; format: functional, cell-based, Homo sapiens; settings: Homo sapiens, HH
Description: SANGER: Inhibition of human HH cell growth in a cell viability assay.

[3] = system: SW 962; format: functional, cell-based, Homo sapiens; settings: Homo sapiens, SW 962;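 also: growth inhibition of human SW962 cells, read out by a cell viability assay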
Description: SANGER: Inhibition of human SW962 cell growth in a cell viability assay.

[4] = system: ALL-PO; format: functional, cell-based, Homo sapiens; settings: Homo sapiens, ALL-PO;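 also: growth inhibition of ALL-PO cells, read out by a cell viability assay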
Description: SANGER: Inhibition of human ALL-PO cell growth in a cell viability assay.

[5] = system: Becker; format: functional, cell-based, Homo sapiens; settings: Homo sapiens, Becker;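 also: growth inhibition of Becker cells, read out with a cell viability assay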
Description: SANGER: Inhibition of human Becker cell growth in a cell viability assay.

[6] = system: JVM-3; format: functional, cell-based, Homo sapiens; settings: Homo sapiens, JVM-3;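 also: growth inhibition of human JVM-3 cells, read out with a cell viability assay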
Description: SANGER: Inhibition of human JVM-3 cell growth in a cell viability assay.

[7] = system: NCI-H510A; format: functional, cell-based, Homo sapiens; settings: Homo sapiens, NCI-H510A;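 also: growth inhibition of NCI-H510A cells, read out with a cell viability assay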
Description: SANGER: Inhibition of human NCI-H510A cell growth in a cell viability assay.

[8] = system: GI-ME-N; format: functional, cell-based, Homo sapiens; settings: Homo sapiens, GI-ME-N;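 also: growth inhibition of human GI-ME-N cells, read out with a cell viability assay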
Description: SANGER: Inhibition of human GI-ME-N cell growth in a cell viability assay.

[9] = system: HCC1187; format: functional, cell-based, Homo sapiens; settings: Homo sapiens, HCC1187;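 also: growth inhibition of HCC1187 cells, read out with a cell viability assay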
Description: SANGER: Inhibition of human HCC1187 cell growth in a cell viability assay.

[10] = system: GR-ST; format: functional, cell-based, Homo sapiens; settings: Homo sapiens, GR-ST
Description: SANGER: Inhibition of human GR-ST cell growth in a cell viability assay.

[11] = system: NB6; format: functional, cell-based, Homo sapiens; settings: Homo sapiens, NB6;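 also: growth inhibition of NB6 cells, read out by a cell viability assay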
Description: SANGER: Inhibition of human NB6 cell growth in a cell viability assay.

[12] = system: SHP77; format: functional, cell-based, Homo sapiens, SHP-77; settings: Homo sapiens, SHP77;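 also: growth inhibition of human SHP-77 cells measured by a cell viability assay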
Description: SANGER: Inhibition of human SHP-77 cell growth in a cell viability assay.

[13] = system: NCI-H1650; format: functional, cell-based, Homo sapiens; settings: Homo sapiens, NCI-H1650;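 also: growth inhibition of human NCI-H1650 cells measured by a cell viability assay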
Description: SANGER: Inhibition of human NCI-H1650 cell growth in a cell viability assay.

[14] = system: RKO; format: functional, cell-based, Homo sapiens; settings: Homo sapiens, RKO;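 also: growth inhibition of human RKO cells, read out with a cell viability assay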
Description: SANGER: Inhibition of human RKO cell growth in a cell viability assay.

[15] = system: TGW; format: functional, cell-based, Homo sapiens; settings: Homo sapiens, TGW;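 also: growth inhibition of human TGW cells, read out with a cell viability assay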
Description: SANGER: Inhibition of human TGW cell growth in a cell viability assay.

[16] = system: CP66-MEL; format: functional, cell-based, Homo sapiens; settings: Homo sapiens, CP66-MEL;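 also: growth inhibition of CP66-MEL cells determined in a cell viability assay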
Description: SANGER: Inhibition of human CP66-MEL cell growth in a cell viability assay.

[17] = system: AM-38; format: functional, cell-based, Homo sapiens; settings: Homo sapiens, AM-38;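 also: growth inhibition of AM-38 cells of human origin, read out by a cell viability assay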
Description: SANGER: Inhibition of human AM-38 cell growth in a cell viability assay.

[18] = system: EW-3; format: functional, cell-based, Homo sapiens; settings: Homo sapiens, EW-3;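 also: cell viability assay read-out, IC50 reflects inhibition of growth of the EW-3 cells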
Description: SANGER: Inhibition of human EW-3 cell growth in a cell viability assay.

[19] = system: A4-Fuk; format: functional, cell-based, Homo sapiens; settings: Homo sapiens, A4-Fuk;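 also: growth inhibition of A4-Fuk cells, read out by a cell viability assay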
Description: SANGER: Inhibition of human A4-Fuk cell growth in a cell viability assay.

[20] = system: EM-2; format: functional, cell-based, Homo sapiens; settings: Homo sapiens, EM-2;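 also: growth inhibition of EM-2 cells, read out with a cell viability assay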
Description: SANGER: Inhibition of human EM-2 cell growth in a cell viability assay.

[21] = system: SF-126; format: functional, cell-based, Homo sapiens; settings: Homo sapiens, SF-126;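 also: growth inhibition of human SF126 cells, read out with a cell viability assay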
Description: SANGER: Inhibition of human SF126 cell growth in a cell viability assay.

[22] = system: D-502MG; format: functional, cell-based, Homo sapiens; settings: Homo sapiens, D-502MG
Description: SANGER: Inhibition of human D-502MG cell growth in a cell viability assay.

[23] = system: GOTO; format: functional, cell-based, Homo sapiens; settings: Homo sapiens, GOTO;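 also: growth inhibition of GOTO cells, read out by a cell viability assay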
Description: SANGER: Inhibition of human GOTO cell growth in a cell viability assay.

[24] = system: DOHH-2; format: functional, cell-based, Homo sapiens; settings: Homo sapiens, DOHH-2;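 also: growth inhibition of human DOHH-2 cells, read out with a cell viability assay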
Description: SANGER: Inhibition of human DOHH-2 cell growth in a cell viability assay.

[25] = system: HT-144; format: functional, cell-based, Homo sapiens; settings: Homo sapiens, HT-144
Description: SANGER: Inhibition of human HT-144 cell growth in a cell viability assay.

[26] = system: K5; format: functional, cell-based, Homo sapiens; settings: Homo sapiens, K5
Description: SANGER: Inhibition of human K5 cell growth in a cell viability assay.

[27] = system: NCI-H1092; format: functional, cell-based, Homo sapiens; settings: Homo sapiens, NCI-H1092;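 also: cell growth inhibition measured with a cell viability assay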
Description: SANGER: Inhibition of human NCI-H1092 cell growth in a cell viability assay.

[28] = system: NMC-G1; format: functional, cell-based, Homo sapiens; settings: Homo sapiens, NMC-G1;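 also: growth inhibition of the NMC-G1 cell line, measured with a cell viability read-out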
Description: SANGER: Inhibition of human NMC-G1 cell growth in a cell viability assay.

[29] = system: HL-60; format: functional, cell-based, Homo sapiens; settings: Homo sapiens, HL-60;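 also: growth inhibition of human HL-60 cells, read out with a cell viability assay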
Description: SANGER: Inhibition of human HL-60 cell growth in a cell viability assay.

[30] = system: LB2241-RCC; format: functional, cell-based, Homo sapiens; settings: Homo sapiens, LB2241-RCC;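 also: cell viability assay measuring how strongly the cultured human renal carcinoma line is prevented from growing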
Description: SANGER: Inhibition of human LB2241-RCC cell growth in a cell viability assay.

[31] = system: EW-13; format: functional, cell-based, Homo sapiens; settings: Homo sapiens, EW-13;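 also: growth inhibition of EW-13 cells, read out with a cell viability assay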
Description: SANGER: Inhibition of human EW-13 cell growth in a cell viability assay.

[32] = system: NCI-H1648; format: functional, cell-based, Homo sapiens; settings: Homo sapiens, NCI-H1648;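 also: cell viability assay measuring inhibition of NCI-H1648 cell growth, from the Sanger screening data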
Description: SANGER: Inhibition of human NCI-H1648 cell growth in a cell viability assay.

[33] = system: A388; format: functional, cell-based, Homo sapiens; settings: Homo sapiens, A388;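 also: growth inhibition of human A388 cells, read out with a cell viability assay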
Description: SANGER: Inhibition of human A388 cell growth in a cell viability assay.

[34] = system: ES8; format: functional, cell-based, Homo sapiens; settings: Homo sapiens, ES8;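 also: growth inhibition of human ES8 cells, read out with a cell viability assay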
Description: SANGER: Inhibition of human ES8 cell growth in a cell viability assay.

[35] = system: EW-16; format: functional, cell-based, Homo sapiens; settings: Homo sapiens, EW-16;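 also: growth inhibition of human EW-16 cells, read out as cell viability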
Description: SANGER: Inhibition of human EW-16 cell growth in a cell viability assay.

[36] = system: A498; format: functional, cell-based, Homo sapiens; settings: Homo sapiens, A498;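 also: growth inhibition of human A498 cells, read out with a cell viability assay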
Description: SANGER: Inhibition of human A498 cell growth in a cell viability assay.

[37] = system: TE-9; format: functional, cell-based, Homo sapiens; settings: Homo sapiens, TE-9;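 also: cell growth inhibition, measured with a cell viability readout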
Description: SANGER: Inhibition of human TE-9 cell growth in a cell viability assay.

[38] = system: NCI-H209; format: functional, cell-based, Homo sapiens; settings: Homo sapiens, NCI-H209;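 also: growth inhibition of human NCI-H209 cells, measured by a cell viability assay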
Description: SANGER: Inhibition of human NCI-H209 cell growth in a cell viability assay.

[39] = system: ES7; format: functional, cell-based, Homo sapiens; settings: Homo sapiens, ES7;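 also: growth inhibition of cultured human ES7 cells, read out as cell viability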
Description: SANGER: Inhibition of human ES7 cell growth in a cell viability assay.

[40] = system: NCI-H82; format: functional, cell-based, Homo sapiens; settings: Homo sapiens, NCI-H82;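 also: growth inhibition of NCI-H82 cells, measured with a cell viability readout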
Description: SANGER: Inhibition of human NCI-H82 cell growth in a cell viability assay.

[41] = system: KGN; format: functional, cell-based, Homo sapiens; settings: Homo sapiens, KGN;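 also: growth inhibition of KGN cells, read out with a cell viability assay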
Description: SANGER: Inhibition of human KGN cell growth in a cell viability assay.

[42] = system: LB1047-RCC; format: functional, cell-based, Homo sapiens; settings: Homo sapiens, LB1047-RCC;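 also: inhibition of cell growth, determined with a cell viability assay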
Description: SANGER: Inhibition of human LB1047-RCC cell growth in a cell viability assay.

[43] = system: ML-2; format: functional, cell-based, Homo sapiens; settings: Homo sapiens, ML-2;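 also: growth inhibition of ML-2 cells, measured with a cell viability readout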
Description: SANGER: Inhibition of human ML-2 cell growth in a cell viability assay.

[44] = system: ETK-1; format: functional, cell-based, Homo sapiens; settings: Homo sapiens, ETK-1;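 also: growth inhibition of human ETK-1 cells, read out with a cell viability assay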
Description: SANGER: Inhibition of human ETK-1 cell growth in a cell viability assay.

[45] = system: IST-SL1; format: functional, cell-based, Homo sapiens; settings: Homo sapiens, IST-SL1;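 also: growth inhibition of human IST-SL1 cells, read out with a cell viability assay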
Description: SANGER: Inhibition of human IST-SL1 cell growth in a cell viability assay.

[46] = system: COLO-829; format: functional, cell-based, Homo sapiens; settings: Homo sapiens, COLO-829
Description: SANGER: Inhibition of human COLO-829 cell growth in a cell viability assay.

[47] = system: SK-N-DZ; format: functional, cell-based, Homo sapiens; settings: Homo sapiens, SK-N-DZ;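 also: growth inhibition of the cancer cell line, read out through a viability assay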
Description: SANGER: Inhibition of human SK-N-DZ cell growth in a cell viability assay.

[48] = system: ES1; format: functional, cell-based, Homo sapiens; settings: Homo sapiens, ES1;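 also: growth inhibition of ES1 cells, read out with a cell viability assay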
Description: SANGER: Inhibition of human ES1 cell growth in a cell viability assay.

COc1cc(N2CCN(C)CC2)ccc1Nc1ncc2c(n1)N(C)c1ccccc1C(=O)N2C
pIC50 [1]: < 5.10
pIC50 [2]: 5.34
pIC50 [3]: < 5.10
pIC50 [4]: 5.24
pIC50 [5]: 5.13
pIC50 [6]: < 5.10
pIC50 [7]: < 5.10
pIC50 [8]: 6.05
pIC50 [9]: < 5.10
pIC50 [10]: 5.11
pIC50 [11]: < 5.10
pIC50 [12]: < 5.10
pIC50 [13]: < 5.10
pIC50 [14]: 5.33
pIC50 [15]: < 5.10
pIC50 [16]: < 5.10
pIC50 [17]: < 5.10
pIC50 [18]: < 5.10
pIC50 [19]: 5.41
pIC50 [20]: < 5.10
pIC50 [21]: < 5.10
pIC50 [22]: < 5.10
pIC50 [23]: < 5.10
pIC50 [24]: 5.59
pIC50 [25]: < 5.10
pIC50 [26]: < 5.10
pIC50 [27]: < 5.10
pIC50 [28]: < 5.10
pIC50 [29]: 5.29
pIC50 [30]: < 5.10
pIC50 [31]: < 5.10
pIC50 [32]: < 5.10
pIC50 [33]: 5.18
pIC50 [34]: 5.38
pIC50 [35]: < 5.10
pIC50 [36]: < 5.10
pIC50 [37]: < 5.10
pIC50 [38]: < 5.10
pIC50 [39]: < 5.10
pIC50 [40]: < 5.10
pIC50 [41]: 5.55
pIC50 [42]: < 5.10
pIC50 [43]: 5.13
pIC50 [44]: < 5.10
pIC50 [45]: < 5.10
pIC50 [46]: < 5.10
pIC50 [47]: < 5.10
pIC50 [48]: < 5.10

COc1cc2ncn(-c3cc(OCc4ccccc4S(C)(=O)=O)c(C#N)s3)c2cc1OC [GSK-319347A]
pIC50 [1]: < 5.30
pIC50 [2]: < 5.30
pIC50 [3]: < 5.30
pIC50 [4]: < 5.30
pIC50 [5]: < 5.30
pIC50 [6]: < 5.30
pIC50 [7]: < 5.30
pIC50 [8]: < 5.30
pIC50 [9]: < 5.30
pIC50 [10]: < 5.30
pIC50 [11]: < 5.30
pIC50 [12]: < 5.30
pIC50 [13]: < 5.30
pIC50 [14]: < 5.30
pIC50 [15]: < 5.30
pIC50 [16]: < 5.30
pIC50 [17]: < 5.30
pIC50 [18]: < 5.30
pIC50 [19]: < 5.30
pIC50 [20]: < 5.30
pIC50 [21]: < 5.30
pIC50 [22]: < 5.30
pIC50 [23]: < 5.30
pIC50 [24]: < 5.30
pIC50 [25]: < 5.30
pIC50 [26]: < 5.30
pIC50 [27]: < 5.30
pIC50 [28]: < 5.30
pIC50 [29]: < 5.30
pIC50 [30]: < 5.30
pIC50 [31]: < 5.30
pIC50 [32]: < 5.30
pIC50 [33]: < 5.30
pIC50 [34]: < 5.30
pIC50 [35]: < 5.30
pIC50 [36]: < 5.30
pIC50 [37]: < 5.30
pIC50 [38]: < 5.30
pIC50 [39]: < 5.30
pIC50 [40]: < 5.30
pIC50 [41]: < 5.30
pIC50 [42]: < 5.30
pIC50 [43]: < 5.30
pIC50 [44]: < 5.30
pIC50 [45]: < 5.30
pIC50 [46]: < 5.30
pIC50 [47]: < 5.30
pIC50 [48]: < 5.30

CC[C@H](CO)Nc1nc(NCc2ccccc2)c2ncn(C(C)C)c2n1 [SELICICLIB]
pIC50 [1]: < 4.80
pIC50 [2]: < 4.80
pIC50 [3]: < 4.80
pIC50 [4]: < 4.80
pIC50 [5]: 5.02
pIC50 [6]: < 4.80
pIC50 [7]: < 4.80
pIC50 [8]: < 4.80
pIC50 [9]: < 4.80
pIC50 [10]: < 4.80
pIC50 [11]: < 4.80
pIC50 [12]: < 4.80
pIC50 [13]: < 4.80
pIC50 [14]: < 4.80
pIC50 [15]: < 4.80
pIC50 [16]: < 4.80
pIC50 [17]: < 4.80
pIC50 [18]: < 4.80
pIC50 [19]: < 4.80
pIC50 [20]: < 4.80
pIC50 [21]: < 4.80
pIC50 [22]: < 4.80
pIC50 [23]: < 4.80
pIC50 [24]: < 4.80
pIC50 [25]: < 4.80
pIC50 [26]: < 4.80
pIC50 [27]: < 4.80
pIC50 [28]: < 4.80
pIC50 [29]: < 4.80
pIC50 [30]: < 4.80
pIC50 [31]: < 4.80
pIC50 [32]: < 4.80
pIC50 [33]: < 4.80
pIC50 [34]: < 4.80
pIC50 [35]: < 4.80
pIC50 [37]: < 4.80
pIC50 [38]: < 4.80
pIC50 [39]: < 4.80
pIC50 [40]: < 4.80
pIC50 [41]: < 4.80
pIC50 [42]: < 4.80
pIC50 [43]: < 4.80
pIC50 [44]: < 4.80
pIC50 [45]: < 4.80
pIC50 [46]: < 4.80
pIC50 [47]: < 4.80
pIC50 [48]: < 4.80
